According to patent publication EP0840727B1, “3-HYDROXY-2(1H)-[…] AGENTS” (priority 1995, dated 1997):
Marks after values point to notes of the source that are not given here.

Experiments:
[1] = In vivo acute toxicity test of injected ligands in mice
Method: The test of acute toxicity of novel and comparative ligands was carried out as follows. Groups of five mice were each given a single i.p. injection of […] of ligand and a day for 10 days or given two i.p. injections of […] in 8 hours. The ligand was dissolved in 0.5 to 1.0 ml of saline at pH 7 to 8. After a period of observation, the mice were killed; selected tissues were removed and fixed for histopathological examination; and unusual findings at autopsy were recorded. […]

[2] = Promoting excretion of 238Pu(IV) in mice by injected ligands; type: in vivo; conditions: for percent of injected ^238Pu ± SD at 24 h, tissues: liver / percent of injected ^238Pu ± SD at 24 h, tissues: skeleton / percent of injected ^238Pu ± SD at 24 h, tissues: soft tissue / percent of injected ^238Pu ± SD at 24 h, whole body / percent of injected ^238Pu at 24 h, excreta: feces and GI contents / percent of injected ^238Pu at 24 h, excreta: urine 0-24 h / percent of injected ^238Pu at 24 h, tissues: kidneys: ligand 30 µmol kg^-1 ip at 1 h after iv ^238Pu(IV) citrate, kill at 24 h; for percent of injected ^238Pu at 24 h, excreta: feces and GI contents / percent of injected ^238Pu at 24 h, excreta: urine 0-24 h / percent of injected ^238Pu at 24 h, tissues: kidneys: pooled samples; for Pu removal (in words): injected ligands, 30 µmol/kg intraperitoneally one hour after ^238Pu(IV)
From the text: Animal studies were completed using methods detailed in Radiation Protection Dosimetry, in press, P. W. Durbin et al., "In Vivo Chelation of Am(III), Pu(IV), Np(V) and U(VI) in Mice by TREN-(Me-3,2-HOPO)"; Radiation Protection Dosimetry, 17, No. 1, 1989, p. 351, P. W. Durbin et al., "Removal of ^238Pu(IV) from Mice by Polycatechoylate, -Hydroxamate or -Hydroxypyridinonate Ligands"; Radiation Research, 99, 1984, p. 85, P. W. Durbin et al., "Specific Sequestering Agents for the Actinides ..."; Radiation Research, 99, 1984, p. 106, P. W. Durbin et al., "Removal of Pu and Am from Beagles and Mice ..."; Radiation Research, 81, 1980, p. 170, R. D. Lloyd et al., and P. W. Durbin et al., "Specific Sequestering Agents for the Actinides ...". The foregoing articles are hereby incorporated by reference.
Radionuclides used in the animal studies came from a variety of sources. However, they can be purchased commercially. The ^238Pu(IV) citrate and ^241Am(III) citrate solutions were prepared for animal injection by 8- to 10-fold dilution with 0.14M NaCl (pH 4) of concentrated stock solutions (0.08M sodium citrate buffer) that had been held in frozen storage at Lawrence Berkeley Laboratory (hereinafter LBL) for several years. [The ^238Pu(IV) was originally obtained from D. R. Atherton at the University of Utah Radiobiology Laboratory, Salt Lake City. The ^241Am(III) solution had been obtained many years earlier from the LBL Actinide Chemistry group.]
The novel chelating agents of the present invention and comparative compounds were tested for their effectiveness in promoting excretion ^238Pu(IV) in nice by injected ligands as follows. Mice, in groups of five, each received an intravenous injection of 1850 Bq ^238Pu(IV) in 0.2 mL of citrate buffer. One hour later, 30 µmol/kg of ligand was injected intraperitoneally in 0.5 mL of saline. The mice were killed 24 hours after the Pu injection, frozen, and dissected after partial thawing. The ^238Pu in skeleton, soft tissues, and separated excreta was determined by counting the ^234U L x-rays. Results of removal of ^238Pu(IV) from mice by injected ligands are summarized in Table 3, which also includes data for CaNa3-DTPA and other reference ligands and the Pu-injected controls. […] While the case of multidente 1,2-HOPO and catechoylamide chelating agents, octadentates are always better chelating agents than the corresponding hexadentates and tetradentates.

[3] = protocol IA, 100 µmol kg^-1 x 2 daily, study length 6 d, data for two moribund mice autopsied on d 3
[4] = protocol IB, 100 µmol kg^-1, study length 5 d
[5] = protocol I, 100 µmol kg^-1 x 10 daily i.p., study length 11 d
[6] = protocol I, 100 µmol kg^-1 x 10 daily i.p., study length 21 d
[7] = protocol II, 500 µmol kg^-1 x 2 in 8 h, study length 11 d

SMILES	percent of injected ^238Pu ± SD at 24 h, tissues: liver [2]	percent of injected ^238Pu ± SD at 24 h, tissues: skeleton [2]	percent of injected ^238Pu ± SD at 24 h, tissues: soft tissue [2]	percent of injected ^238Pu ± SD at 24 h, whole body [2]	percent of injected ^238Pu at 24 h, excreta: feces and GI contents [2]	percent of injected ^238Pu at 24 h, excreta: urine 0-24 h [2]	percent of injected ^238Pu at 24 h, tissues: kidneys [2]	other results
Cn1ccc(C(=O)NCCCNC(=O)c2ccn(C)c(=O)c2O)c(O)c1=O [3-LI-Me-3,2-HOPO, 1,3-bis[(3-hydroxy-1-methyl-2-oxo-1,2-dihydropyridin-4yl)carboxamido]propane]	9.5 ± 4.9^d percent of injected ^238Pu	14 ± 1.9% of injected ^238Pu	2.6 ± 0.4% of injected ^238Pu	27 ± 5.2% of injected ^238Pu	41.6% of injected ^238Pu	32% of injected ^238Pu	0.5% of injected ^238Pu	no. of survivors ([1]; protocol IA, 100 µmol kg^-1 x 2 daily, study length 6 d): 0; percent control mean + SD: body weight [1, 3]: 89 ± 4 percent control; percent control mean + SD: kidney weight [1, 3]: 222 ± 29 percent control; percent control mean + SD: plasma urea N [1, 3]: >1800 percent control
Cn1ccc(C(=O)NCCCCNC(=O)c2ccn(C)c(=O)c2O)c(O)c1=O [4-LI-Me-3,2-HOPO]	3.7 ± 1.5^d percent of injected ^238Pu	11 ± 1.7% of injected ^238Pu	1.9 ± 0.5% of injected ^238Pu	17 ± 2.4^d percent of injected ^238Pu	63% of injected ^238Pu	19.4% of injected ^238Pu	0.4% of injected ^238Pu	no. of survivors [1, 4]: 0; percent control mean + SD: body weight [1, 4]: 85 ± 8 percent control; percent control mean + SD: kidney weight [1, 4]: 190 ± 63 percent control; percent control mean + SD: plasma urea N [1, 4]: >2000 percent control; Pu removal (in words) [2]: as effective or more effective than the hexadentate and octadentate chelating agents
Cn1ccc(C(=O)NCCCCCNC(=O)c2ccn(C)c(=O)c2O)c(O)c1=O [5-LI-Me-3,2-HOPO, 1,5-bis[(3-hydroxy-1-methyl-2-oxo-1,2-dihydropyridin-4-yl)carboxamido]pentane]	3.1 ± 0.8^d percent of injected ^238Pu	10 ± 1.2% of injected ^238Pu	1.9 ± 0.5% of injected ^238Pu	16 ± 1.9^d percent of injected ^238Pu	67.6% of injected ^238Pu	17.5% of injected ^238Pu	0.3% of injected ^238Pu	toxicity (in words) ([1]; even at the relatively high dosage of 2x500 µmol/kg in 8 hours): low toxicity; no. of survivors [1, 5]: 5; percent control mean + SD: body weight [1, 5]: 102 ± 5 percent control; percent control mean + SD: kidney weight [1, 5]: 109 ± 14 percent control; percent control mean + SD: plasma urea N [1, 5]: 89 ± 1 percent control; no. of survivors [1, 6]: 5; percent control mean + SD: body weight [1, 6]: 102 ± 5 percent control; percent control mean + SD: kidney weight [1, 6]: 100 ± 4 percent control; percent control mean + SD: plasma urea N [1, 6]: 101 ± 2 percent control; no. of survivors [1, 7]: 5; percent control mean + SD: body weight [1, 7]: 99 ± 3 percent control; percent control mean + SD: kidney weight [1, 7]: 109 ± 9 percent control; percent control mean + SD: plasma urea N [1, 7]: 98 ± 18 percent control; Pu removal (in words) [2]: as effective or more effective than the hexadentate and octadentate chelating agents
Cn1ccc(C(=O)NCCN(CCCN(CCNC(=O)c2ccn(C)c(=O)c2O)CCNC(=O)c2ccn(C)c(=O)c2O)CCNC(=O)c2ccn(C)c(=O)c2O)c(O)c1=O [H(3,2)-Me-3,2-HOPO, N,N,N',N'-tetrakis[(3-hydroxy-1-methyl-2-oxo-1,2-dihydropyridin-4-yl)carboxamido-ethyl]-propylenediamine]	14 ± 6.1% of injected ^238Pu	10 ± 2.0% of injected ^238Pu	2.4 ± 0.3^d percent of injected ^238Pu	28 ± 4.8% of injected ^238Pu	52.1% of injected ^238Pu	19.5% of injected ^238Pu	1.2% of injected ^238Pu	
Cn1ccc(C(=O)NCCN(CCCCN(CCNC(=O)c2ccn(C)c(=O)c2O)CCNC(=O)c2ccn(C)c(=O)c2O)CCNC(=O)c2ccn(C)c(=O)c2O)c(O)c1=O [H(4,2)-Me-3,2-HOPO, N,N,N',N'-tetrakis[(3-hydroxy-1-methyl-2-oxo-1,2-dihydropyridin-4-yl)carboxamido-ethyl]-butylenediamine]	29 ± 6.1% of injected ^238Pu	12 ± 2.9% of injected ^238Pu	1.9 ± 1.0% of injected ^238Pu	46 ± 8.5% of injected ^238Pu	26.8% of injected ^238Pu	28% of injected ^238Pu	1.8% of injected ^238Pu	
Cc1c(CNC(=O)c2ccn(C)c(=O)c2O)c(C)c(CNC(=O)c2ccn(C)c(=O)c2O)c(C)c1CNC(=O)c1ccn(C)c(=O)c1O [ME-Me-3,2-HOPO]	6.1 ± 4.9^d percent of injected ^238Pu	12 ± 1.8% of injected ^238Pu	3.0 ± 2.0% of injected ^238Pu	22 ± 8.5^d percent of injected ^238Pu	70.1% of injected ^238Pu	33.5% of injected ^238Pu	0.9% of injected ^238Pu	
Cn1ccc(C(=O)NCCN(CCNC(=O)c2ccn(C)c(=O)c2O)CCN(CC(=O)O)CC(=O)O)c(O)c1=O [TREN-bis(Me-3,2-HOPO)-bis acetic acid]	6.6 ± 2.2^d percent of injected ^238Pu	20 ± 1.7% of injected ^238Pu	2.7 ± 0.8% of injected ^238Pu	30 ± 3.6% of injected ^238Pu	34.6% of injected ^238Pu	8.7% of injected ^238Pu	0.5% of injected ^238Pu	
Cn1ccc(C(=O)NCCCN(CCCNC(=O)c2ccn(C)c(=O)c2O)CCCNC(=O)c2ccn(C)c(=O)c2O)c(O)c1=O [TRPN-Me-3,2-HOPO]	17 ± 5.0% of injected ^238Pu	14 ± 3.2% of injected ^238Pu	2.0 ± 1.1% of injected ^238Pu	33 ± 5.3% of injected ^238Pu	11.5% of injected ^238Pu	55% of injected ^238Pu		
